Results from US10370338B2, “Benzazepine dicarboxamide compounds with tertiary amide function” (Hoffmann-La Roche Inc., priority 2016, dated 2019).
pEC50: −log10 of the molar value.

Key:
human TLR8 = human TLR8 (Homo sapiens (Human), UniProt Q9NR97); assay: HEK-Blue human TLR8 cells NF-κB SEAP reporter assay; type: cell-based; conditions: stimulation for 20 hours
From the text: (§1) For TLR8 and TLR7 activity testing, HEK-Blue human TLR8 or TLR7 cells (Invivogen, San Diego, Calif., USA) are used, respectively. These cells are designed for studying the stimulation of human TLR8 or TLR7 by monitoring the activation of NF-κB. A SEAP (secreted embryonic alkaline phosphatase) reporter gene is placed under the control of the IFN-b minimal promoter fused to five NF-κB and AP-1-binding sites. Therefore the reporter expression is regulated by the NF-κB promoter upon stimulation of human TLR8 or TLR7 for 20 hours. The cell culture supernatant SEAP reporter activity was determined using Quanti Blue kit (Invivogen, San Diego, Ca, USA) at a wavelength of 640 nm, a detection medium that turns purple/blue in the presence of alkaline phosphatase. EC50 values were determined using Activity Base analysis (ID Business Solution, Limited).

human TLR7 = human TLR7 (Homo sapiens (Human), UniProt Q9NYK1); assay: HEK-Blue human TLR7 cells NF-κB SEAP reporter assay; type: cell-based; conditions: stimulation for 20 hours
From the text: as §1

Chain of human TLR8 (Q9NR97 27-1041): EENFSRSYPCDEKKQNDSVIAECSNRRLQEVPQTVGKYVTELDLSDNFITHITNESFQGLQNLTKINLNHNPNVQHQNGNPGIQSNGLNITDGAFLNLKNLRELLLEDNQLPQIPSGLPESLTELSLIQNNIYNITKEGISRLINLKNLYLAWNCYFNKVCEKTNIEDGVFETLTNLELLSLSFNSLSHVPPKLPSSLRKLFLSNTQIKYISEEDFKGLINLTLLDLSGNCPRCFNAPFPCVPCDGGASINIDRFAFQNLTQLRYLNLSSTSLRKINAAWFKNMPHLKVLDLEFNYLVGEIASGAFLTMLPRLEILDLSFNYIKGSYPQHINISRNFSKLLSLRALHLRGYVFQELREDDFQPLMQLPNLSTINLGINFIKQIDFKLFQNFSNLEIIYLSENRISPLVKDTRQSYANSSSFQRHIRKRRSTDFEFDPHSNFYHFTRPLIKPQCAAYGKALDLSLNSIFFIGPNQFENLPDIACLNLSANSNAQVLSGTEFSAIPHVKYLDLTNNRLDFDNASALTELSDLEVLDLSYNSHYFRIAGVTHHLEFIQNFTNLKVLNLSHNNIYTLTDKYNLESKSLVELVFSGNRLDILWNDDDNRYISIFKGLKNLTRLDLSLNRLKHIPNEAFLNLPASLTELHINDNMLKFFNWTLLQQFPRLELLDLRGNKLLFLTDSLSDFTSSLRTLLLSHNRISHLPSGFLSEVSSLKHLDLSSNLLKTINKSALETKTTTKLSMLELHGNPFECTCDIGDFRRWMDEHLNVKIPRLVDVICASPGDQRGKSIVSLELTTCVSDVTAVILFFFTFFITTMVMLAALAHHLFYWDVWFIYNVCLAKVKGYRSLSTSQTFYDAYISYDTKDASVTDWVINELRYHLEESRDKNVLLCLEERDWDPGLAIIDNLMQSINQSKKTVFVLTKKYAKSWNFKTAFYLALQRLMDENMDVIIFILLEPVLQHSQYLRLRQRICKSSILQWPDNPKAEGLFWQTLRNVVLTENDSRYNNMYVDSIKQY
Chain of human TLR7 (Q9NYK1 27-1049): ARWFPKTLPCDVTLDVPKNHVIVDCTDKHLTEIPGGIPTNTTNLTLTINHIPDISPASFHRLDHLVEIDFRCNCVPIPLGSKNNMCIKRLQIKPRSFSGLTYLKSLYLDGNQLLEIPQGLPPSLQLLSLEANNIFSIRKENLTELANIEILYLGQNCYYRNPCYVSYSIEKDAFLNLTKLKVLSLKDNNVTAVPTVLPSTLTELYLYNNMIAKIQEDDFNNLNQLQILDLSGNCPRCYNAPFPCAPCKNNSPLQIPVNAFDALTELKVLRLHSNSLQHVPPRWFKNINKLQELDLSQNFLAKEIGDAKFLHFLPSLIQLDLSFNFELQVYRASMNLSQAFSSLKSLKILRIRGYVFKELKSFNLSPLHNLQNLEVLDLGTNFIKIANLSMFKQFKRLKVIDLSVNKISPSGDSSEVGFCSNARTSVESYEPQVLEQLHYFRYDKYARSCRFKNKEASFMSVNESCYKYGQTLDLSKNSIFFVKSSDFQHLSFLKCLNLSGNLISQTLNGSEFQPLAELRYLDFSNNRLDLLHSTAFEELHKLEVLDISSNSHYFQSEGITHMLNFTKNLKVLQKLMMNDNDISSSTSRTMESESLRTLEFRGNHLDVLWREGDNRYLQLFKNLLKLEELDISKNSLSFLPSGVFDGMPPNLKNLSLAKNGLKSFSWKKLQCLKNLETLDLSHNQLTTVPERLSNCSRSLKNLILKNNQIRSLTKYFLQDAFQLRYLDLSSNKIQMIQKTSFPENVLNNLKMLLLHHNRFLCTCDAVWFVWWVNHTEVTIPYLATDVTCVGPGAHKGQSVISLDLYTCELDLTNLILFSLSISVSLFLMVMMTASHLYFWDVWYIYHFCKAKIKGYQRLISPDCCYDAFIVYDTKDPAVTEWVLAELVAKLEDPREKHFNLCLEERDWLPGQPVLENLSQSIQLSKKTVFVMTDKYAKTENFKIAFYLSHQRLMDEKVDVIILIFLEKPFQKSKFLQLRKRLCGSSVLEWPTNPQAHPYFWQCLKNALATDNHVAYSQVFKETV

Structure (SMILES) | pEC50 (human TLR8) | pEC50 (human TLR7)
CCCN(CCC)C(=O)C1=Cc2ccc(C(=O)N3CCC(Nc4ccccc4)C3)cc2N=C(N)C1 (stereo not drawn) [Example 5, 2-Amino-8-(3-anilinopyrrolidine-1-carbonyl)-N,N-dipropyl-3H-1-benzazepine-4-carboxamide] | 8.40 | 4.85
C/C=C/COC1CN(C(=O)c2ccc3c(c2)N=C(N)CC(C(=O)N(CCC)CCC)=C3)C1 [Example 22, 2-Amino-8-[3-[(E)-but-2-enoxy]azetidine-1-carbonyl]-N,N-dipropyl-3H-1-benzazepine-4-carboxamide] | 7.92 | 4.49
CCCN(CC1CC1)C(=O)C1=Cc2ccc(C(=O)N3CCC(Nc4ccccc4)CC3)cc2N=C(N)C1 [Example 9, 2-Amino-8-(4-anilinopiperidine-1-carbonyl)-N-(cyclopropylmethyl)-N-propyl-3H-1-benzazepine-4-carboxamide] | 7.70 | 4.74
CCCN(CCC)C(=O)C1=Cc2ccc(C(=O)N3CCC(NCc4ccccc4)C3)cc2N=C(N)C1 (stereo not drawn) [Example 19, 2-Amino-8-[3-(benzylamino)pyrrolidine-1-carbonyl]-N,N-dipropyl-3H-1-benzazepine-4-carboxamide] | 7.85 | 5.18
CCCN(CCC)C(=O)C1=Cc2ccc(C(=O)N3CCN(c4ccccc4)CC3)cc2N=C(N)C1 [Example 6, 2-Amino-8-(4-phenylpiperazine-1-carbonyl)-N,N-dipropyl-3H-1-benzazepine-4-carboxamide] | 7.60 | 5.05
CCCN(CCC)C(=O)C1=Cc2ccc(C(=O)N3CC4CC(C3)N4c3ccccc3)cc2N=C(N)C1 [Example 12, 2-Amino-8-(6-phenyl-3,6-diazabicyclo[3.1.1]heptane-3-carbonyl)-N,N-dipropyl-3H-1-benzazepine-4-carboxamide] | 7.66 | 4.96
CCCN(CCC)C(=O)C1=Cc2ccc(C(=O)N3CCCC(NCc4ccccc4)C3)cc2N=C(N)C1 (stereo not drawn) [Example 24, 2-Amino-8-[3-(benzylamino)piperidine-1-carbonyl]-N,N-dipropyl-3H-1-benzazepine-4-carboxamide] | 7.85 | 5.51
CCCN(CCC)C(=O)C1=Cc2ccc(C(=O)N3CC(CNc4ccccc4)C3)cc2N=C(N)C1 [Example 4, 2-Amino-8-[3-(anilinomethyl)azetidine-1-carbonyl]-N,N-dipropyl-3H-1-benzazepine-4-carboxamide] | 8.00 | 5.00
CCCN(CCC)C(=O)C1=Cc2ccc(C(=O)N3CC4(CCN(c5ccccc5)C4)C3)cc2N=C(N)C1 [Example 7, 2-Amino-8-(7-phenyl-2,7-diazaspiro[3.4]octane-2-carbonyl)-N,N-dipropyl-3H-1-benzazepine-4-carboxamide] | 8.00 | < 4.00
CCCN(CCC)C(=O)C1=Cc2ccc(C(=O)N3CC4(C3)CN(c3ccc(C)cc3)C4)cc2N=C(N)C1 [Example 1, 2-Amino-N,N-dipropyl-8-[6-(p-tolyl)-2,6-diazaspiro[3.3]heptane-2-carbonyl]-3H-1-benzazepine-4-carboxamide] | 8.30 | < 4.00
CCCN(CCC)C(=O)C1=Cc2ccc(C(=O)N3CC(Nc4ccccc4)C3)cc2N=C(N)C1 [Example 3, 2-Amino-8-(3-anilinoazetidine-1-carbonyl)-N,N-dipropyl-3H-1-benzazepine-4-carboxamide] | 8.30 | 4.62
CCCN(CCC)C(=O)C1=Cc2ccc(C(=O)N3CCCC3)cc2N=C(N)C1 [Example 8, 2-Amino-N,N-dipropyl-8-(pyrrolidine-1-carbonyl)-3H-1-benzazepine-4-carboxamide] | 7.82 | 4.68
CCCCOC1CN(C(=O)c2ccc3c(c2)N=C(N)CC(C(=O)N(CCC)CCC)=C3)C1 [Example 25, 2-Amino-8-(3-butoxyazetidine-1-carbonyl)-N,N-dipropyl-3H-1-benzazepine-4-carboxamide] | 8.10 | 4.51
CCCN(CCC)C(=O)C1=Cc2ccc(C(=O)N3CCC(CNc4ccccc4)CC3)cc2N=C(N)C1 [Example 20, 2-amino-8-[4-(anilinomethyl)piperidine-1-carbonyl]-N,N-dipropyl-3H-1-benzazepine-4-carboxamide] | 7.70 | 5.00
CCCN(CCC)C(=O)C1=Cc2ccc(C(=O)N3CCC(Nc4ccccc4)CC3)cc2N=C(N)C1 [Example 2, 2-Amino-8-(4-anilinopiperidine-1-carbonyl)-N,N-dipropyl-3H-1-benzazepine-4-carboxamide] | 8.22 | 5.10
CCCN(CCC)C(=O)C1=Cc2ccc(C(=O)N3CCCC(Nc4ccccc4)C3)cc2N=C(N)C1 (stereo not drawn) [Example 23, 2-Amino-8-(3-anilinopiperidine-1-carbonyl)-N,N-dipropyl-3H-1-benzazepine-4-carboxamide] | 8.10 | 6.40
CCCN(CCC)C(=O)C1=Cc2ccc(C(=O)N3CC4CCC(C3)N4c3ccccc3)cc2N=C(N)C1 [Example 15, 2-Amino-8-(8-phenyl-3,8-diazabicyclo[3.2.1]octane-3-carbonyl)-N,N-dipropyl-3H-1-benzazepine-4-carboxamide] | 8.00 | 4.80
CCCN(CCC)C(=O)C1=Cc2ccc(C(=O)N3CCN(Cc4ccccc4)CC3)cc2N=C(N)C1 [Example 10, 2-Amino-8-(4-benzylpiperazine-1-carbonyl)-N,N-dipropyl-3H-1-benzazepine-4-carboxamide] | 8.30 | 4.85
CCCN(CCC)C(=O)C1=Cc2ccc(C(=O)N3CC(NCc4ccccc4)C3)cc2N=C(N)C1 [Example 17, 2-Amino-8-[3-(benzylamino)azetidine-1-carbonyl]-N,N-dipropyl-3H-1-benzazepine-4-carboxamide] | 7.74 | 4.77
CCCN(CCC)C(=O)C1=Cc2ccc(C(=O)N3CC4CN(c5ccccc5)C4C3)cc2N=C(N)C1 (stereo not drawn) [Example 16, 2-Amino-8-(6-phenyl-3,6-diazabicyclo[3.2.0]heptane-3-carbonyl)-N,N-dipropyl-3H-1-benzazepine-4-carboxamide] | 7.54 | 4.92
CCCN(CCC)C(=O)C1=Cc2ccc(C(=O)N3CCC(Nc4ccc(CN)cc4)C3)cc2N=C(N)C1 (stereo not drawn) [Example 18, 2-Amino-8-[3-[4-(aminomethyl)anilino]pyrrolidine-1-carbonyl]-N,N-dipropyl-3H-1-benzazepine-4-carboxamide] | 7.51 | < 4.00
CCCN(CCC)C(=O)C1=Cc2ccc(C(=O)N3CCC(CNc4ccccc4)C3)cc2N=C(N)C1 (stereo not drawn) [Example 21, 2-Amino-8-[3-(anilinomethyl)pyrrolidine-1-carbonyl]-N,N-dipropyl-3H-1-benzazepine-4-carboxamide] | 8.05 | 5.16
CCCN(CCC)C(=O)C1=Cc2ccc(C(=O)N3CCC4(CC3)CN(c3ccccc3)C4)cc2N=C(N)C1 [Example 13, 2-Amino-8-(2-phenyl-2,7-diazaspiro[3.5]nonane-7-carbonyl)-N,N-dipropyl-3H-1-benzazepine-4-carboxamide] | 8.15 | < 4.00
CCCN(CCC)C(=O)C1=Cc2ccc(C(=O)N3CC4(CCN(c5ccccc5)CC4)C3)cc2N=C(N)C1 [Example 14, 2-Amino-8-(7-phenyl-2,7-diazaspiro[3.5]nonane-2-carbonyl)-N,N-dipropyl-3H-1-benzazepine-4-carboxamide] | 8.05 | 4.48
